Results as given in patent US11634443B2, “Treprostinil prodrugs” (United Therapeutics Corporation, priority 2019, dated 2023).
Like-named read-outs stand apart in the source and are kept apart here.

What was measured:
[1] = Plasma stability and formation of treprostinil, human plasma; type: in vitro ADME; conditions: for Formation of Treprostinil, Concentration: prodrug dosed at 1 μM
Procedure: (§1) Studies were carried out in mixed-gender human plasma male Sprague-Dawley rat plasma, and male Beagle dog plasma. All plasma was obtained from Bioreclamation and collected on K2EDTA. Plasma was adjusted to pH 7.4 prior to initiating the experiments. DMSO stocks were first prepared for the test articles. […] The vials were kept in a benchtop Thermomixer® for the duration of the experiment. […] Samples were stored at 4° C. until the end of the experiment. After the final time point was sampled, the plate was mixed and then centrifuged at 3000 rpm for 10 minutes.

[2] = Plasma stability and formation of treprostinil, rat plasma; type: in vitro ADME; conditions: for Formation of Treprostinil, Concentration: prodrug dosed at 1 μM
Procedure: as §1

[3] = Plasma stability and formation of treprostinil, dog plasma; type: in vitro ADME; conditions: for Formation of Treprostinil, Concentration: prodrug dosed at 1 μM
Procedure: as §1

[4] = Stability and formation of treprostinil in human cryopreserved hepatocytes
Procedure: (§2) Mixed-gender human cryopreserved hepatocytes, male Sprague-Dawley rat cryopreserved hepatocytes, and male Beagle dog cryopreserved hepatocytes were purchased from XenoTech. The hepatocytes were thawed and prepared according to the vendor's instructions, pooled into Krebs Henseleit buffer (KHB, pH 7.4), and kept on ice prior to the experiments. […] The final DMSO content in the incubation mixture was ≤0.1%. […] Aliquots of the test article were withdrawn (n=1) at 0, 15, 30, 60, and 120 minutes. […] Aliquots of 7-HC were withdrawn (n=1) at 0 and 15 minutes. The reaction was immediately terminated by adding two volumes of ice-cold acetonitrile (ACN) to the test article samples and three volumes of ACN containing internal standard to the positive control samples.

[5] = Stability and formation of treprostinil in rat cryopreserved hepatocytes
Procedure: as §2

[6] = Stability and formation of treprostinil in dog cryopreserved hepatocytes
Procedure: as §2

[7] = Stability and formation of treprostinil in simulated intestinal fluid; type: in vitro ADME; conditions: for Formation of Treprostinil, Concentration: SIF, prodrug dosed at 1 μM
Procedure: Studies were carried out in simulated intestinal fluid (SIF). SIF was prepared by dissolving 6.8 g of KH2PO4 in 250 mL of water, mixing, and then adding 77 mL of 0.2 N NaOH and 750 mL of water. Pancreatin (10 g) was added, mixed, and the pH was adjusted to pH 6.8 with 10 N NaOH. DMSO stocks were first prepared for the test articles. Aliquots of the DMSO solutions were dosed into 0.4 mL of matrix, which had been pre-warmed to 37° C., at a final test article concentration of 1 μM. The vials were kept in a benchtop Thermomixer® for the duration of the experiment. A separate tube was dosed for each time point in each matrix. At the appropriate times (0, 15, 30, 60, and 120 minutes), 0.8 mL of acetonitrile (ACN) containing 1% formic acid and internal standard was added directly to a single tube. Samples were mixed and then immediately stored at 4° C. until the end of the experiment. After the final time point was sampled, the plate was mixed and then centrifuged at 3000 rpm for 10 minutes. Aliquots of the supernatant were removed, diluted 1:1 into distilled water containing internal standard, and analyzed by LC-MS/MS against calibration standards prepared in a matched matrix. All samples were analyzed for the dosed prodrugs as well as the drug, treprostinil. The test article concentration was compared to the concentration at time 0 to determine the percent of test article remaining at each time point. Half-lives were calculated using GraphPad software, fitting to a single-phase exponential decay equation.

[8] = biological target: T1, prostaglandin I2 (PGI2) receptor (IP) (Homo sapiens, UniProt P43119); experiment: IP receptor cAMP assay (agonist mode); type: cell-based; conditions: cAMP, cells overexpressing human IP
T1 construct: expressed in transfected cells; host or cells: CHO-K1
T1 sequence (P43119 whole entry): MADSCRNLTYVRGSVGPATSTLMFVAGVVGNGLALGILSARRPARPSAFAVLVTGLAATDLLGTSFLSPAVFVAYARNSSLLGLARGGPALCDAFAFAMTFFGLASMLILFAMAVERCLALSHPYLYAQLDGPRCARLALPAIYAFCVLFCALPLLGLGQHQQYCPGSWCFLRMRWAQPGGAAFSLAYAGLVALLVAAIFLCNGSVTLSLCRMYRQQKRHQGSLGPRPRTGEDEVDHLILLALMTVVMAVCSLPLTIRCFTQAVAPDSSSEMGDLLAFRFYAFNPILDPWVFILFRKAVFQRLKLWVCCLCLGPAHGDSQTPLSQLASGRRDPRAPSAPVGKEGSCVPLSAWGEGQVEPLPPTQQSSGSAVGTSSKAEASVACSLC

[9] = biological target: T2, prostaglandin E2 (PGE2) receptor 2 (EP2) (Homo sapiens, UniProt P43116); experiment: EP2 receptor cAMP assay (agonist mode); type: cell-based; conditions: cAMP, cells overexpressing human EP2
T2 construct: expressed in transfected cells; host or cells: HEK293T
T2 sequence (P43116 whole entry): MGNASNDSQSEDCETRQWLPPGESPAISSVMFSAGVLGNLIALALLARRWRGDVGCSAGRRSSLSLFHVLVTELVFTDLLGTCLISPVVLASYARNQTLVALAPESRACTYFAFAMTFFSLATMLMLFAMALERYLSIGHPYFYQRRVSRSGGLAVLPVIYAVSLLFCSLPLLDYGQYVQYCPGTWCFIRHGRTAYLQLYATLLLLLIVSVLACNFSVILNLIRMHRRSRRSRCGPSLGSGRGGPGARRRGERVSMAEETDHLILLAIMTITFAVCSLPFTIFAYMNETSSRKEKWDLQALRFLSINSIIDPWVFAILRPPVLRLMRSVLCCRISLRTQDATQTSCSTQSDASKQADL

[10] = biological target: T3, prostaglandin D2 (PGD2) receptor 1 (DP1) (Homo sapiens, UniProt Q13258); experiment: DP1 receptor cAMP assay (agonist mode); type: cell-based; conditions: for Activity, DP1 Relative to Tre: relative to treprostinil EC50 values, * partial agonists or ambiguous dose-response curves
T3 construct: expressed in transfected cells; host or cells: HEK293T
T3 sequence (Q13258 1-359): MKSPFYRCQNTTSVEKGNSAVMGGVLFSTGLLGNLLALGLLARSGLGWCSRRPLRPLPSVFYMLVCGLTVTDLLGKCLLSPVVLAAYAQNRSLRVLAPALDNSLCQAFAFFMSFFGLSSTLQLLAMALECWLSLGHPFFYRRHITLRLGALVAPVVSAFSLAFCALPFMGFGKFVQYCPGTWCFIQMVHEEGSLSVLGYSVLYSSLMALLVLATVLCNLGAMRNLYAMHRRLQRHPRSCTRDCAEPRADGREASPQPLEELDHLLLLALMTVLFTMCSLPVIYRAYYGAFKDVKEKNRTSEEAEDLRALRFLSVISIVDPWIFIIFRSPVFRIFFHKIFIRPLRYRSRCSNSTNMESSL

[11] = Hydrolysis of treprostinil prodrugs to treprostinil at pH 6, 7 and 8 and 40 C; type: physicochemical
Description: Tables 26, 27 and 28 present data for hydrolysis of selected treprostinil prodrugs at pH 6, 7 and 8, respectively, and 40 C.

[12] = microsomes
Procedure: (§3) Mixed-gender human liver microsomes, male Sprague-Dawley rat liver microsomes, and male Beagle dog liver microsomes were purchased from XenoTech. The reaction mixture, minus NADPH, was prepared as described below. […] An aliquot of the reaction mixture (without cofactor) was equilibrated in a shaking water bath at 37° C. for 5 minutes. The reaction was initiated by the addition of cofactor, and the mixture was incubated in a shaking water bath at 37° C. Aliquots (200 μL) were withdrawn at 0, 10, 20, 30, and 60 minutes. Test article samples were immediately combined with 400 μL of ice-cold acetonitrile (ACN) to terminate the reaction. […] The samples were then mixed and centrifuged to precipitate proteins. Aliquots of the supernatant were removed, diluted 1:1 into distilled water containing internal standard, and analyzed by LC-MS/MS against calibration standards prepared in a matched matrix. All samples were analyzed for the dosed prodrugs as well as the drug, treprostinil. The test article concentration was compared to the concentration at time 0 to determine the percent of test article remaining at each time point. Half-lives and clearance were calculated using GraphPad software, fitting to a single-phase exponential decay equation.
Liver Microsomes 0.5 mg/mL
Potassium Phosphate, pH 7.4 100 mM

[13] = microsomes; remark: listed apart in the source
Procedure: as §3
Liver Microsomes 0.5 mg/mL
Potassium Phosphate, pH 7.4 100 mM

treprostinil dipropionate [Prodrug LXX]
Percent Remaining ([1]; 0 min, 1 μM, 37° C.): 100%
Formation of Treprostinil, Concentration ([1]; 0 min): 0 µM
Half-Life ([1]; 1 μM, 37° C.): >2 h
Percent Remaining ([1]; 15 min, 1 μM, 37° C.): 92.4%
Formation of Treprostinil, Concentration ([1]; 15 min): 0 µM
Percent Remaining ([1]; 30 min, 1 μM, 37° C.): 102%
Formation of Treprostinil, Concentration ([1]; 30 min): 0 µM
Percent Remaining ([1]; 60 min, 1 μM, 37° C.): 93.3%
Percent Remaining ([1]; 120 min, 1 μM, 37° C.): 103%
Formation of Treprostinil, Concentration ([1]; 120 min): 0 µM
Formation of Treprostinil, Concentration [1]: 0 µM
Percent Remaining ([2]; 0 min, 1 μM, 37° C.): 100%
Formation of Treprostinil, Concentration ([2]; 0 min): 0 µM
Half-Life ([2]; 1 μM, 37° C.): 1.7 h
Formation of Treprostinil, Concentration ([2]; 60 mm): 0.0331 µM
Percent Remaining ([2]; 15 min, 1 μM, 37° C.): 98.3%
Formation of Treprostinil, Concentration ([2]; 15 min): 0.00392 µM
Percent Remaining ([2]; 30 min, 1 μM, 37° C.): 80.3%
Formation of Treprostinil, Concentration ([2]; 30 min): 0.0101 µM
Percent Remaining ([2]; 60 min, 1 μM, 37° C.): 69.3%
Percent Remaining ([2]; 120 min, 1 μM, 37° C.): 45.0%
Formation of Treprostinil, Concentration ([2]; 120 min): 0.0768 µM
Percent Remaining ([3]; 0 min, 1 μM, 37° C.): 100%
Formation of Treprostinil, Concentration ([3]; 0 min): 0 µM
Half-Life ([3]; 1 μM, 37° C.): >2 h
Percent Remaining ([3]; 15 min, 1 μM, 37° C.): 103%
Formation of Treprostinil, Concentration ([3]; 15 min): 0 µM
Percent Remaining ([3]; 30 min, 1 μM, 37° C.): 116%
Formation of Treprostinil, Concentration ([3]; 30 min): 0 µM
Percent Remaining ([3]; 60 min, 1 μM, 37° C.): 97.4%
Percent Remaining ([3]; 120 min, 1 μM, 37° C.): 91.4%
Formation of Treprostinil, Concentration ([3]; 120 min): 0 µM
Formation of Treprostinil, Concentration [3]: 0 µM
Treprostinil Concentration, 0 min [4]: 0.00542 µM
Treprostinil Concentration, 15 min [4]: 0.638 µM
Treprostinil Concentration, 30 min [4]: 0.556 µM
Treprostinil Concentration, 60 min [4]: 0.482 µM
Treprostinil Concentration, 120 min [4]: 0.413 µM
Treprostinil Concentration, 0 min [5]: 0 µM
Treprostinil Concentration, 15 min [5]: 0.606 µM
Treprostinil Concentration, 30 min [5]: 0.579 µM
Treprostinil Concentration, 60 min [5]: 0.484 µM
Treprostinil Concentration, 120 min [5]: 0.405 µM
Treprostinil Concentration, 0 min [6]: 0.0959 µM
Treprostinil Concentration, 15 min [6]: 0.736 µM
Treprostinil Concentration, 30 min [6]: 0.597 µM
Treprostinil Concentration, 60 min [6]: 0.511 µM
Treprostinil Concentration, 120 min [6]: 0.445 µM
CLint ([6]; hepatocytes): >0.0308 mL/min/mg protein
Half-Life ([6]; hepatocytes): <0.25 h
Percent Remaining ([7]; SIF pH 6.8, 0 min, 1 μM, 37° C.): 100%
Half-Life ([7]; SIF pH 6.8, 1 μM, 37° C.): >2 h
Percent Remaining ([7]; SIF pH 6.8, 15 min, 1 μM, 37° C.): 97.2%
Percent Remaining ([7]; SIF pH 6.8, 30 min, 1 μM, 37° C.): 104%
Percent Remaining ([7]; SIF pH 6.8, 60 min, 1 μM, 37° C.): 93.6%
Percent Remaining ([7]; SIF pH 6.8, 120 min, 1 μM, 37° C.): 86.2%
Formation of Treprostinil, Concentration ([7]; 0 min): 0 µM
Formation of Treprostinil, Concentration ([7]; 15 min): 0 µM
Formation of Treprostinil, Concentration ([7]; 30 min): 0 µM
Formation of Treprostinil, Concentration ([7]; 60 min): 0.00415 µM
Formation of Treprostinil, Concentration ([7]; 120 min): 0.0720 µM
Activity at the IP receptor compared to treprostinil [8]: inactive
Activity at the EP2 receptor compared to treprostinil [9]: inactive
EC50 Fold Different from Treprostinil, DP1 Receptor ([10]; Table 20, agonist mode, NC = too inactive to realistically calculate, * partial agonists or odd dose-response curves): 410x*
Activity, DP1 Relative to Tre ([10]; Table 24, image character = too high to realistically calculate): 410x
Activity, DP1 Relative to Tre ([10]; Table 25): 410x
Activity at the DP1 receptor compared to treprostinil ([10]; cAMP, cells overexpressing human DP1): several hundred-fold less active
Hydrolysis of prodrug to treprostinil, % Area, t = 1 week ([11]; pH 6, 40 C): 0.00 % Area
Hydrolysis of prodrug to treprostinil, % Area, t = 2 weeks ([11]; pH 6, 40 C): 0.00 % Area
Hydrolysis of prodrug to treprostinil, % Area, t = 3 weeks ([11]; pH 6, 40 C): 0.00 % Area
Hydrolysis of prodrug to treprostinil, % Area, t = 1 week ([11]; pH 7, 40 C): 0.00 % Area
Hydrolysis of prodrug to treprostinil, % Area, t = 2 weeks ([11]; pH 7, 40 C): 0.00 % Area
Hydrolysis of prodrug to treprostinil, % Area, t = 3 weeks ([11]; pH 7, 40 C): 0.00 % Area
Hydrolysis of prodrug to treprostinil, % Area, t = 1 week ([11]; pH 8, 40 C): 0.00 % Area
Hydrolysis of prodrug to treprostinil, % Area, t = 2 weeks ([11]; pH 8, 40 C): 0.00 % Area
Hydrolysis of prodrug to treprostinil, % Area, t = 3 weeks ([11]; pH 8, 40 C): 0.00 % Area
Half-Life [12]: <0.167 h
Half-Life [13]: <0.167 h
